Legend:
MAPT exon 10 = assay: MAPT minigene exon 10 splicing in transfected cell lines; type: cell-based; settings: 60 μM, 24 hours, MAPT minigenes, all three mutations tested
Source text: FIGS. 4C-4F Upper row: The sequences at the 5′ splice site of Exon X in patient cells and minigene constructs are shown (FIGS. 4C-4F). The sequences around the 5′ splice site of Exon X are shown in LOGO plots, with the closely matched CNN motifs indicated beneath the plots. […] Middle row: RT-PCR experiments validated treatment responses in patient cell lines carrying specific splice site mutations. The upper bands indicate the isoform in which the middle Exon X is included while the lower bands indicate the isoform in which the middle Exon X is skipped. Each set of gels is one of the triplicates used to generate the bar plots beneath. […] The statistical significance, as shown in FIGS. 4C-4F, was determined via two-tailed, unpaired Student's test: *p<0.05; **p<0.01; ***p<0.001.
In another example from Table 18, several MAPT minigenes encompassing exons 9 to 11 and flanking exon 10 intronic sequences, with the three mutations listed in Table 17: c.1866+3 G>A, c.1865 G>A or c.1788 T>G were prepared. These mutations were predicted by SpliceA1 to promote inclusion of MAPT exon 10. […] An increase in MAPT exon 10 inclusion is responsible for familial frontotemporal dementia and Parkinsonism linked to chromosome 17 (FTDP-17, MIM #600274). […]

ELP1 protein = assay: In vivo ELP1 protein quantification (ELP1-HTRF) in TgFD9 mouse tissues; design: species or system TgFD9 transgenic mice; settings: brain, liver, kidney, heart and skin; TgFD9 mice, oral gavage once daily for 7 days, 10-100 mg/kg
Description: FIGS. 7A-7G show the relative expression of full-length (FL) and Δ20 ELP1 mRNA (left panel), and ELP1 protein quantification (right panel) in brain (FIG. 7A) and liver (FIG. 7B) after oral doses of Compound (I) ranging from 10 to 100 mg/kg in adult transgenic TgFD9 mouse (n=4-6 mice in each treatment group). Comparisons were done within the same group, against the vehicle-treated mice. In the figure, *p<0.05; **p<0.01; ***p<0.001.
FIGS. 7C-E show the relative expression of full-length (FL) and Δ20 ELP1 mRNA (left graphs), and ELP1 protein quantification (right graphs) in kidney (FIG. 7C), heart (FIG. 7D) and skin (FIG. 7E) after oral doses of Compound (I) ranging from 10 to 100 mg/kg in adult transgenic TgFD9 mouse (n=4-6 mice in each treatment group). […] The levels of compound were measured using mass spectrometry. […]
Compound (I) was evaluated in vivo to determine whether splicing correction can lead to a concomitant increase in ELP1 protein. […]
Tissue samples were collected, snap frozen in liquid nitrogen, weighed, and homogenized on the TissueLyzer II (Qiagen) in RIPA buffer (Tris-HCl 50 mM, pH 7.4; NaCl 150 mM; NP-40 1%; sodium deoxycholate 0.5%; SDS 0.1%) containing a cocktail of protease inhibitors (Roche) at a tissue weight to RIPA buffer volume of 50 mg/mL. […] Fluorescence was measured at 665 nm and 620 nm on an EnVision multilabel plate reader (Perkin Elmer). […]

With `Clc1nc(NCc2ccncc2)c2cc[nH]c2n1` [Compound (I), 2-chloro-N-(pyridin-4-ylmethyl)-7H-pyrrolo[2,3-d]pyrimidin-4-amine] the “exon 10 splicing” value (MAPT exon 10) was “significantly promoted exon 10 exclusion” and the “increase in functional ELP1 protein” value (ELP1 protein) was “at least a two-fold increase”.
